Data from patent US20090181948A1, “DIAMINE DERIVATIVE” (KYOWA HAKKO KOGYO CO., LTD., priority 2005, published 2009).
Structures can show the parent of a compound that is named as a salt.

How the values were obtained:
[1] = biological target: T1, histamine H3 receptor (Rattus norvegicus, UniProt Q9QYN8); test: Histamine H3 receptor binding assay ([3H]-Nα-methylhistamine binding to rat striatum homogenate); settings: 1 μmol/L test compound; [3H]-Nα-methylhistamine 1 nmol/L; striata of Sprague-Dawley male rats, 25° C., 1 hour; read-out: Inhibition ratio of [3H]-Nα-methylhistamine binding
T1 construct: from tissue; host or cells: rat striatum (Sprague-Dawley, male, 6 weeks), membrane homogenate
T1 sequence (Q9QYN8 whole entry): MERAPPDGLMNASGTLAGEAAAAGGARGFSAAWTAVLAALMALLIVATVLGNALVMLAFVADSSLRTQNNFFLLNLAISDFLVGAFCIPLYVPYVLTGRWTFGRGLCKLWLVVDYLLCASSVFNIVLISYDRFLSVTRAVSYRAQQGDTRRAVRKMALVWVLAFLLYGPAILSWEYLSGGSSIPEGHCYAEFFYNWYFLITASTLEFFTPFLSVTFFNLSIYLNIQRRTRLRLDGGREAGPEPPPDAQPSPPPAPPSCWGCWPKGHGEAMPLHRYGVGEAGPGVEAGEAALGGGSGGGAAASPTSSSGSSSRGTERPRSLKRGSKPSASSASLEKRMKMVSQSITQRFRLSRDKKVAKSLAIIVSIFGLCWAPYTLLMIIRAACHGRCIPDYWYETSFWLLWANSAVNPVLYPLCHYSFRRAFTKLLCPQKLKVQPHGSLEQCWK
Summary of the method: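 Rat striatum membranes (20 μg protein) incubated with [3H]-Nα-methylhistamine 1 nmol/L in 50 mmol/L Tris/HCl pH 7.4, 5 mmol/L EDTA, 1 hour at 25° C; bound ligand by filtration and scintillation counting. Nonspecific binding defined with 10 μmol/L thioperamide; % inhibition reported at 1 μmol/L compound.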

[2] = biological target: T1, histamine H3 receptor; test: Inhibitory effect on histamine release suppressive action of histamine H3 receptor agonist (Nα-methylhistamine) in rat forebrain synaptosomes; type: biochemical; settings: 1 μmol/L test compound and 1 μmol/L Nα-methylhistamine, potassium 30 mmol/L stimulation, read-out: Inhibition ratio of the [3H]-histamine release suppressive action of Nα-methylhistamine
Description: To the forebrains of Sprague-Dawley male rats (6 to 8 weeks of age), a 30-fold volume of a 0.32 mol/L aqueous sucrose solution was added and the forebrains were homogenized. The resulting homogenate was centrifuged (1,000×g, 4° C., 10 min), and to the obtained supernatant, an equivalent volume of Krebs-Ringer solution [120 mmol/L sodium chloride, 0.8 mmol/L potassium chloride, 2.6 mmol/L calcium chloride, 0.67 mmol/L magnesium sulfate, 1.2 mmol/L potassium dihydrogen phosphate, 27.5 mmol/L sodium bicarbonate, 10 mmol/L glucose (pH 7.3)] was added, and the resulting mixture was centrifuged (10,000×g, 4° C., 15 min). To the obtained precipitate, a 15-fold volume of Krebs-Ringer solution was added to suspend the precipitate. Then, the concentration of protein in the resulting tissue homogenate (synaptosomes) was measured and used for a test.
To the synaptosomes (300 μg in terms of protein amount) prepared by the above-described method, a [^3H]-histidine solution [final concentration: […] (740 kBq)/mL]: 6 μl of a 37 MBq/mL (specific activity: […]) solution] was added, and the total volume was adjusted to 300 μL with Krebs-Ringer solution. Then, the resulting mixture was incubated at 37° C. for 30 minutes and centrifuged (10,000×g, 25° C., 3 min). To the resulting precipitate (synaptosomes), 300 μL of Krebs-Ringer solution was added, and the mixture was incubated at 37° C. for 5 minutes and centrifuged (10,000×g, 25° C., 3 min). This procedure was repeated 5 times, whereby washing of synaptosomes was carried out. The resulting synaptosomes were suspended in 100 μL of Krebs-Ringer solution, and the resulting suspension was used for the following procedure.
A test compound and N^α-methylhistamine were separately dissolved in Krebs-Ringer solution to give a concentration of 20 μmol/L (the resulting mixtures were referred to as a test compound solution and a N^α-methylhistamine solution, respectively). To 100 μL of the above-described suspended synaptosomes (300 μg in terms of protein amount), 140 μL of Krebs-Ringer solution was added. Then, 30 μL of the test compound solution and 30 μL of the N^α-methylhistamine solution were added thereto, and the resulting mixture was incubated at 37° C. for 2 minutes. Then, an equivalent volume of a stimulating solution [64 mmol/L sodium chloride, 56.8 mmol/L potassium chloride, 2.6 mmol/L calcium chloride, 0.67 mmol/L magnesium sulfate, 1.2 mmol/L potassium dihydrogen phosphate, 27.5 mmol/L sodium bicarbonate, 10 mmol/L glucose (pH 7.3)] (final potassium concentration: 30 mmol/L) was added, and the resulting mixture was incubated at 37° C. for 2 minutes to release [^3H]-histamine. The reaction mixture was centrifuged (10,000×g, 25° C., 3 min), and the obtained supernatant was passed through Amberlite CG-50 column (250 μL), and the non-adsorbed fractions were discarded. Then, 2 mL of 50 mmol/L [[…]]/hydrochloric acid (HCl) (pH 7.5) (Tris) was passed through the column 3 times, and 2 mL of distilled water, and 1.5 mL of a 0.2 mol/L aqueous sodium hydroxide solution were passed through the column in this order, and the eluted fractions were discarded. Then, 2 mL of a 0.2 mol/L aqueous sodium hydroxide solution was passed through the column, and the eluted fraction was recovered in a scintillation vial. Then, 8 mL of Ultimagold (Perkin Elmer) was added to the recovered eluted solution, and the radioactivity ([^3H]-histamine) was measured using a liquid scintillation counter. The inhibitory action of the test compound on the histamine release suppressive action of N^α-methylhistamine was evaluated by obtaining the inhibition ratio to the histamine release suppressive action in the presence of 1 μmol/L No-methylhistamine and 1 μmol/L of the test compound. The inhibition ratio of the [^3H]-histamine release suppressive action was calculated using the following Equation (2). […]

CC1CCCN1CCCN1CCN(CCCN2CCCC2C)C1=CS(=O)(=O)CC#N (stereo not drawn) [Compound 137, {1,3-Bis[3-(2-methylpyrrolidin-1-yl)propyl]imidazolidin-2-ylidene}methanesulfonylacetonitrile]
inhibition at 1 µM [1]: ≥ 80% | melting point: 106 to 110 °C | inhibition at 1 µM [2]: ≥ 70%

N#CC(C#N)=C(NCCCN1CCCCC1)N1CCC(N2CCCCC2)CC1 [Compound 160, [(4-Piperidinopiperidino)(3-piperidinopropylamino)methylene]malononitrile]
inhibition at 1 µM [1]: ≥ 80% | melting point: 117 to 118 °C | inhibition at 1 µM [2]: ≥ 70%

N#CC(C#N)=C1N(CCCN2CCCCC2)CCN1CCN1CCCCC1 [Compound 10, [1-(2-Piperidinoethyl)-3-(3-piperidinopropyl)imidazolidin-2-ylidene]malononitrile]
inhibition at 1 µM [1]: ≥ 80% | inhibition at 1 µM [2]: ≥ 70%

C[C@@H]1CCCN1CCCN1C(=C(C#N)C#N)N(CCCN2CCC[C@H]2C)c2ccccc21 [Compound 205, {1,3-Bis[3-((R)-2-methylpyrrolidin-1-yl)propyl]benzimidazolidin-2-ylidene}malononitrile]
inhibition at 1 µM [1]: ≥ 80% | melting point: 96 to 97 °C | inhibition at 1 µM [2]: ≥ 70%

N#CC(C#N)=C1N(CCCCN2CCCCC2)CCN1CCN1CCCCC1 [Compound 7, [1-(4-Piperidinobutyl)-3-(2-piperidinoethyl)imidazolidin-2-ylidene]malononitrile]
inhibition at 1 µM [1]: ≥ 80% | inhibition at 1 µM [2]: ≥ 70%

CC(C)N1CCC(N2CCN(CCN3CCC[C@H]3C)C2=C(C#N)C#N)CC1 [Compound 213, {1-(1-Isopropylpiperidin-4-yl)-3-[2-((R)-2-methylpyrrolidin-1-yl)ethyl]imidazolidin-2-ylidene}malononitrile]
inhibition at 1 µM [1]: ≥ 80% | inhibition at 1 µM [2]: ≥ 70%

CC(C)N1CCC(NC(=C(C#N)C#N)N2CCC(N3CCCCC3)CC2)CC1 [Compound 175, [(1-Isopropylpiperidin-4-ylamino)(4-piperidinopiperidino)methylene]malononitrile]
inhibition at 1 µM [1]: ≥ 80% | inhibition at 1 µM [2]: ≥ 70%

N#CC(C#N)=C1N(CCCN2CCCCC2)CCCN1CCCN1CCCCC1 [Compound 122, [1,3-Bis(3-piperidinopropyl)hexahydropyrimidin-2-ylidene]malononitrile]
inhibition at 1 µM [1]: ≥ 80% | inhibition at 1 µM [2]: ≥ 70%

N#CC(C#N)=C1N(CCCN2CCCCC2)CCN1CCCN1CCCCC1 [Compound 64, [1,3-Bis(3-piperidinopropyl)imidazolidin-2-ylidene]malononitrile]
inhibition at 1 µM [1]: ≥ 80% | inhibition at 1 µM [2]: ≥ 70%

C[C@@H]1CCC[C@H](C)N1CCN1CCN(CCCN2CCCCC2)C1=C(C#N)C#N [Compound 51, {1-[2-(Cis-2,6-dimethylpiperidino)ethyl]-3-(3-piperidinopropyl)imidazolidin-2-ylidene}malononitrile]
inhibition at 1 µM [1]: ≥ 80% | inhibition at 1 µM [2]: ≥ 70%

C[C@H]1CCCN1CCN1CCN(CCN2CCC[C@@H]2C)C1=C(C#N)C#N [Compound 188, {1,3-Bis[2-((S)-2-methylpyrrolidin-1-yl)ethyl]imidazolidin-2-ylidene}malononitrile]
inhibition at 1 µM [1]: ≥ 80% | inhibition at 1 µM [2]: ≥ 70%

C[C@H]1CCCN1CCCN1CCN(CCCN2CCC[C@@H]2C)C1=C(C#N)S(=O)(=O)c1ccccc1 [Compound 247, {1,3-Bis[3-((S)-2-methylpyrrolidin-1-yl)propyl]imidazolidin-2-ylidene}benzenesulfonylacetonitrile monohydrochloride]
inhibition at 1 µM [1]: ≥ 80% | inhibition at 1 µM [2]: ≥ 70%

N#CC(C#N)=C1N(CCCN2CCCCC2)CCN1C1CCN(CCF)CC1 [Compound 215, {1-[1-(2-Fluoroethyl)piperidin-4-yl]-3-(3-piperidinopropyl)imidazolidin-2-ylidene}malononitrile]
inhibition at 1 µM [1]: ≥ 80% | inhibition at 1 µM [2]: ≥ 70%

CN1CCC(N2CCN(CCCN3CCCCC3)C2=C(C#N)C#N)CC1 [Compound 129, [1-(1-Methylpiperidin-4-yl)-3-(3-piperidinopropyl)imidazolidin-2-ylidene]malononitrile]
inhibition at 1 µM [1]: ≥ 80% | inhibition at 1 µM [2]: ≥ 70%

N#CC(C#N)=C1N(CCCN2CCCCC2)CCN1C1CCN(Cc2ccccc2)CC1 [Compound 126, [1-(1-Benzylpiperidin-4-yl)-3-(3-piperidinopropyl)imidazolidin-2-ylidene]malononitrile]
inhibition at 1 µM [1]: ≥ 80% | inhibition at 1 µM [2]: ≥ 70%

CC1CCCN1CCCN1CCN(CCCN2CCCCCC2)C1=C(C#N)C#N (stereo not drawn) [Compound 71, {1-[3-(Azepan-1-yl)propyl]-3-[3-(2-methylpyrrolidin-1-yl)propyl]imidazolidin-2-ylidene}malononitrile]
inhibition at 1 µM [1]: ≥ 80% | inhibition at 1 µM [2]: ≥ 70%

CC1CCCCN1CCCN1CCN(CCCN2CCCC2C)C1=C(C#N)C#N (stereo not drawn) [Compound 111, {1-[3-(2-Methylpiperidino)propyl]-3-[3-(2-methylpyrrolidin-1-yl)propyl]imidazolidin-2-ylidene}malononitrile]
inhibition at 1 µM [1]: ≥ 80% | inhibition at 1 µM [2]: ≥ 70%

CC(C)N1CCC(N2CCN(CCCN3CCCCC3)C2=C(C#N)C#N)CC1 [Compound 130, [1-(1-Isopropylpiperidin-4-yl)-3-(3-piperidinopropyl)imidazolidin-2-ylidene]malononitrile]
inhibition at 1 µM [1]: ≥ 80% | inhibition at 1 µM [2]: ≥ 70%

CC1CCCN1CCN1CCN(CCN2CCCC2C)C1=C(C#N)C#N (stereo not drawn) [Compound 6, {1,3-Bis[2-(2-methylpyrrolidin-1-yl)ethyl]imidazolidin-2-ylidene}malononitrile]
inhibition at 1 µM [1]: ≥ 80% | inhibition at 1 µM [2]: ≥ 70%

CC1CCCN1CCCN1C(=C(C#N)C#N)N(CCCN2CCCC2C)c2ccccc21 (stereo not drawn) [Compound 124, {1,3-Bis[3-(2-methylpyrrolidin-1-yl)propyl]benzimidazolidin-2-ylidene}malononitrile]
inhibition at 1 µM [1]: ≥ 80% | inhibition at 1 µM [2]: ≥ 70%

CC1CCCN1CCCN1CCN(CCCN2CCCCC2)C1=C(C#N)C#N (stereo not drawn) [Compound 103, {1-[3-(2-Methylpyrrolidin-1-yl)propyl]-3-(3-piperidinopropyl)imidazolidin-2-ylidene}malononitrile]
inhibition at 1 µM [1]: ≥ 80% | inhibition at 1 µM [2]: ≥ 70%

CC(C)N1CCC(N2CCN(CCCN3CCOCC3)C2=C(C#N)C#N)CC1 [Compound 216, [1-(1-Isopropylpiperidin-4-yl)-3-(3-morpholinopropyl)imidazolidin-2-ylidene]malononitrile]
inhibition at 1 µM [1]: ≥ 80% | inhibition at 1 µM [2]: ≥ 70%

CC1CCCN1CC1CCN(C(=C(C#N)C#N)N(C)CCN2CCCCC2)CC1 (stereo not drawn) [Compound 149, {[N-methyl-N-(2-piperidinoethyl)amino][4-(2-methylpyrrolidin-1-ylmethyl)piperidino]methylene}malononitrile]
inhibition at 1 µM [1]: ≥ 80% | inhibition at 1 µM [2]: ≥ 70%

N#CC(C#N)=C1N(CCCN2CCCCC2)CCN1CCN1CCCCCC1 [Compound 47, {1-[2-(Azepan-1-yl)ethyl]-3-(3-piperidinopropyl)imidazolidin-2-ylidene}malononitrile]
inhibition at 1 µM [1]: ≥ 80% | inhibition at 1 µM [2]: ≥ 70%
